The target of this assay is α7-subtype of nicotinic receptors (Rattus norvegicus, UniProt Q05941). Put plainly: biochemical. The format is binding.

Structures can show the parent of a compound that is named as a salt.

α7-subtype of nicotinic receptors, sequence (Q05941 23-502): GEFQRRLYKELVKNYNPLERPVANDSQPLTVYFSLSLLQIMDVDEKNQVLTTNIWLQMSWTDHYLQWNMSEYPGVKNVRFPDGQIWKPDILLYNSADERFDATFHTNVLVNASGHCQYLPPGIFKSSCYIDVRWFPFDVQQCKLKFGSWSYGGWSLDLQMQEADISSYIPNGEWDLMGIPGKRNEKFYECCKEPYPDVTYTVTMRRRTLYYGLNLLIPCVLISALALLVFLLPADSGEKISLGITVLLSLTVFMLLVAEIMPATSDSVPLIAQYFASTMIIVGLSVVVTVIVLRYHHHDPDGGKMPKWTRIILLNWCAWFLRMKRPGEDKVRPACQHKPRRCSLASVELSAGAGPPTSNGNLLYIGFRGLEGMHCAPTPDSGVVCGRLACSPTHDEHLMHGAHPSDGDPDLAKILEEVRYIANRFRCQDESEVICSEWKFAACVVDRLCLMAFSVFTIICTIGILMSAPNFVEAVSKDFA

For the compound `Cn1ccc2ccc(-c3nnc(N4CCN5CCC4CC5)o3)cc21` [Compound A1, 4-[5-(1-Methyl-1H-indol-6-yl)-[1,3,4]oxadiazol-2-yl]-1,4-diaza-bicyclo[3.2.2]nonane fumaric acid salt], the IC50 (as a rule, the concentration needed to halve the response being measured) was 11 nM.

Compound `FCCn1ccc2ccc(-c3nnc(N4CCN5CCC4CC5)o3)cc21` [Compound A2, 4-{5-[1-(2-Fluoro-ethyl)-1H-indol-6-yl]-[1,3,4]oxadiazol-2-yl}-1,4-diaza-bicyclo[3.2.2]nonane fumaric acid salt] yielded an IC50 of 4.2 nM.

Turning to `c1cc2ccc(-c3nnc(N4CCN5CCC4CC5)o3)cc2[nH]1` [Compound A3, 2-(1,4-diazabicyclo[3.2.2]nonan-4-yl)-5-(1H-indol-6-yl)-1,3,4-oxadiazole free base], half-maximal inhibition (IC50) was put at 16 nM.

In turn, `CC(C)n1ccc2ccc(-c3nnc(N4CCN5CCC4CC5)o3)cc21` [Compound A4, 2-(1,4-diazabicyclo[3.2.2]nonan-4-yl)-5-(1-isopropylindol-6-yl)-1,3,4-oxadiazole free base] yielded a half-maximal inhibitory concentration (IC50) of 39 nM.

`CCn1ccc2ccc(-c3nnc(N4CCN5CCC4CC5)o3)cc21` [Compound A5, 2-(1,4-diazabicyclo[3.2.2]nonan-4-yl)-5-(1-ethylindol-6-yl)-1,3,4-oxadiazole fumaric acid salt] had an IC50 of 3 nM.

The values are drawn from patent publication US8778928B2 (priority 2009, dated 2014).
